# Assays:
# Experiment in all cases: relative viability (nuclei count vs DMSO), 5 days (fraction); higher = more cells survive
# MK-8033 + Olaparib = compound: Cn1cc(-c2cnc3ccc4ccc(CS(=O)(=O)NCc5ccccn5)cc4c(=O)c3c2)cn1 [MK-8033] + O=C(c1cc(Cc2n[nH]c(=O)c3ccccc23)ccc1F)N1CCN(C(=O)C2CC2)CC1 [Olaparib] (partner 8 µM)
# Outline: (§1)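 Lung cancer cell lines in 1536-well plates got either a single drug or a fixed anchor-drug dose together with five library-drug doses (not always all listed) in √10 steps, by pin tool, on the day after seeding. Nuclei were counted after 5 days, and relative viability is the treated-to-vehicle ratio of nuclei counts. Values are medians of duplicate plates.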
# MK-8033 + Phenformin = compound: Cn1cc(-c2cnc3ccc4ccc(CS(=O)(=O)NCc5ccccn5)cc4c(=O)c3c2)cn1 [MK-8033] + N=C(N)NC(=N)NCCc1ccccc1 [Phenformin] (partner 250 µM)
# Outline: as §1
# RU-SKI 43 + Crizotinib = compound: CC[C@@H](C)CNCC(=O)N1CCC2=C([C@@H]1COC3=CC=CC(=C3)C)C=CS2 [RU-SKI 43] + C[C@@H](Oc1cc(-c2cnn(C3CCNCC3)c2)cnc1N)c1c(Cl)ccc(F)c1Cl [Crizotinib] (partner 1 µM)
# Outline: as §1
# Irinotecan + Palbociclib = compound: CCc1c2c(nc3ccc(OC(=O)N4CCC(N5CCCCC5)CC4)cc13)-c1cc3c(c(=O)n1C2)COC(=O)[C@]3(O)CC [Irinotecan] + CC(=O)c1c(C)c2cnc(Nc3ccc(N4CCNCC4)cn3)nc2n(C2CCCC2)c1=O [Palbociclib] (partner 0.5 µM)
# Outline: as §1
cell line,measurement,setting,value
UMC-11,relative viability,MK-8033 + Olaparib; first compound 0.02 µM,0.449
same,relative viability,MK-8033 + Olaparib; first compound 0.06325 µM,0.375
same,relative viability,MK-8033 + Olaparib; first compound 0.2 µM,0.353
same,relative viability,MK-8033 + Olaparib; first compound 0.6325 µM,0.405
same,relative viability,MK-8033 + Olaparib; first compound 2 µM,0.37
same,relative viability,MK-8033 + Phenformin; first compound 0.02 µM,0.323
same,relative viability,MK-8033 + Phenformin; first compound 0.06325 µM,0.258
same,relative viability,MK-8033 + Phenformin; first compound 0.2 µM,0.312
same,relative viability,MK-8033 + Phenformin; first compound 2 µM,0.266
same,relative viability,RU-SKI 43 + Crizotinib; first compound 0.1 µM,0.763
same,relative viability,RU-SKI 43 + Crizotinib; first compound 0.3162 µM,0.707
same,relative viability,RU-SKI 43 + Crizotinib; first compound 1 µM,0.664
same,relative viability,RU-SKI 43 + Crizotinib; first compound 3.162 µM,0.654
same,relative viability,RU-SKI 43 + Crizotinib; first compound 10 µM,0.399
same,relative viability,Irinotecan + Palbociclib; first compound 0.6325 µM,0.343
same,relative viability,Irinotecan + Palbociclib; first compound 2 µM,0.336
same,relative viability,Irinotecan + Palbociclib; first compound 6.325 µM,0.267
same,relative viability,Irinotecan + Palbociclib; first compound 20 µM,0.186
